# Test results from article PMC10557102 (Pharmacology Research & Perspectives, 2023).
# Where “and” joins values, the source holds several entries; their conditions need not be identical. Equal values may be shown once. Read-outs that look alike come from different tables or passages of the source.
# How the values were obtained:
# [1] = molecular target: T1, CYP3A4 (Homo sapiens, UniProt P08684); experiment: Cocktail DDI study: PK of midazolam and 1-OH midazolam with/without nivasorexant; conditions: for t max: median (range); for t max median difference B–A / t max median difference D–A: median difference (90% CI); for t ½ ratio Trt B/Trt A / t ½ ratio Trt D/Trt A / AUC0–24 ratio Trt B/Trt A / C max ratio Trt B/Trt A / AUC0–24 ratio Trt D/Trt A / C max ratio Trt D/Trt A: ratio of geometric means (90% CI); for AUC0–24 ratio Trt B/Trt A / C max ratio Trt B/Trt A: initial nivasorexant dose vs cocktail alone; for AUC0–24 ratio Trt D/Trt A / C max ratio Trt D/Trt A: nivasorexant steady state vs cocktail alone; for AUC(0-t) / half-life: both, human, plasma, oral; for half-life: t ½
# T1 sequence (P08684 whole entry): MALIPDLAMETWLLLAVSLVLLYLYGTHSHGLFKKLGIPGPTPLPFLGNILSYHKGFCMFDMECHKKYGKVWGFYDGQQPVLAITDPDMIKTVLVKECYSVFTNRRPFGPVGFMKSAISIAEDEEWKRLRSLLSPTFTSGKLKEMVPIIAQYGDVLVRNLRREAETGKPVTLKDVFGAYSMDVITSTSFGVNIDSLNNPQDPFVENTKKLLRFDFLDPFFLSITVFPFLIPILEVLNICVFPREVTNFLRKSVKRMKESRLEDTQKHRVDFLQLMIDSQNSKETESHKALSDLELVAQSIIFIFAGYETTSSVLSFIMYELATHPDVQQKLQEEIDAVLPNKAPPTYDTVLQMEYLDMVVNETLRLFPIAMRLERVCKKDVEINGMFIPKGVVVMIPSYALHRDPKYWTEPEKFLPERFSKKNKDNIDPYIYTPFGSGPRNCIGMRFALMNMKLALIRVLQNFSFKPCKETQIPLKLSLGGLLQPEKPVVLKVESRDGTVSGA
# [2] = tested on: CYP2C9; conditions: for t max: median (range); for t max median difference B–A / t max median difference D–A: median difference (90% CI); for t ½ ratio Trt B/Trt A / t ½ ratio Trt D/Trt A / AUC0–24 ratio Trt B/Trt A / C max ratio Trt B/Trt A / AUC0–24 ratio Trt D/Trt A / C max ratio Trt D/Trt A: ratio of geometric means (90% CI); for AUC0–24 ratio Trt B/Trt A / C max ratio Trt B/Trt A: initial nivasorexant dose vs cocktail alone; for AUC0–24 ratio Trt D/Trt A / C max ratio Trt D/Trt A: nivasorexant steady state vs cocktail alone; for half-life: t ½
# [3] = molecular target: T2, CYP2C19 (Homo sapiens, UniProt P33261); conditions: for C max / AUC0–24 / t ½: geometric mean (95% CI); for t max: median (range); for t max median difference B–A / t max median difference D–A: median difference (90% CI); for AUC0–24 ratio Trt B/Trt A / C max ratio Trt B/Trt A: initial nivasorexant dose vs cocktail alone
# T2 sequence (P33261 whole entry): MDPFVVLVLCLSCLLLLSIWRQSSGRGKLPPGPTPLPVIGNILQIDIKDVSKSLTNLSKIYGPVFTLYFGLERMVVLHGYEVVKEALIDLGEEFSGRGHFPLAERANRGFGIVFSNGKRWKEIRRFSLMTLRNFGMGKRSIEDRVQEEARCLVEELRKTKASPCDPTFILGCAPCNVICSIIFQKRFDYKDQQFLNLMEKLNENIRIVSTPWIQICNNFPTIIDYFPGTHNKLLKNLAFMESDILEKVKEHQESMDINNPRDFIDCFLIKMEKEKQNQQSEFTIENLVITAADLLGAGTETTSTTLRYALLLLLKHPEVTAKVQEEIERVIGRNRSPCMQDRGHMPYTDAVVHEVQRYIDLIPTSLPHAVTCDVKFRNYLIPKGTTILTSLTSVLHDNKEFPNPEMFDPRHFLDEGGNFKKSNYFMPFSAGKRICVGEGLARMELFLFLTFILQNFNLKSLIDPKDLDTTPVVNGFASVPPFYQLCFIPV
# [4] = molecular target: CYP2C9 (Homo sapiens, UniProt P11712); conditions: with flurbiprofen, tolbutamide, and warfarin; cited from earlier work
# CYP2C9 (Homo sapiens, UniProt P11712), sequence (P11712 whole entry): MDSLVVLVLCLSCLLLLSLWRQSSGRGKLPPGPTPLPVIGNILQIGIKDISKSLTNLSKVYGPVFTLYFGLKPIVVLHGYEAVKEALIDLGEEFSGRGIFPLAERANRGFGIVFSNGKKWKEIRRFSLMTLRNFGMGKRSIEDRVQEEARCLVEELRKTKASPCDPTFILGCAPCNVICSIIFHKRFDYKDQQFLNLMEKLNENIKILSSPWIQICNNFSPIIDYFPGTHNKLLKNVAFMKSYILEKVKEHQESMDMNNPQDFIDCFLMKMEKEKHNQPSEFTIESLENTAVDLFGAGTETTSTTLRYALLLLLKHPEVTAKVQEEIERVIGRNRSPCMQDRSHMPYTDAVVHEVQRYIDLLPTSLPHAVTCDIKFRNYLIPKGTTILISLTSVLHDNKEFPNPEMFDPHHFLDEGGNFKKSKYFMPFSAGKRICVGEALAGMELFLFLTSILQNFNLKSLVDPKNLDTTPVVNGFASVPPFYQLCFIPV
# [5] = tested on: healthy subjects; experiment: Safety and tolerability in the clinical study; conditions: Day 1 to Day 15, healthy subjects
# [6] = tested on: CYP2C19; conditions: 25 mg b.i.d. for 6 days; cited from earlier work
# [7] = molecular target: T1, CYP3A4; conditions: cited from earlier work
# [8] = molecular target: T2, CYP2C19; experiment: clinical; conditions: both, in vivo; for AUC(0-t) / half-life: geometric mean (95% CI); for half-life: t ½
# [9] = Trt A, Day 1, cocktail alone, geometric mean (95% CI)
# [10] = Trt B, Day 8, cocktail + initial 100 mg nivasorexant, geometric mean (95% CI)
# [11] = Trt B, Day 8, cocktail + initial 100 mg nivasorexant
# [12] = Trt D, Day 15, cocktail + nivasorexant at steady state, geometric mean (95% CI)
# [13] = Trt D, Day 15, cocktail + nivasorexant at steady state
# [14] = ratio of geometric means (90% CI)
# [15] = ratio of geometric means (90% CI), nivasorexant steady state vs cocktail alone
structure (smiles),measurement,setting,value
"OCc1ncc2n1-c1ccc(Cl)cc1C(c1ccccc1F)=NC2 [1‐OH midazolam, 1‐hydroxy (OH) midazolam]",AUC0–24,[1]; [9],8.50 (7.23–10.00) ng*h/mL
same,t ½,[1]; [9],2.27 (1.58–3.25) h
same,t max,"[1]; Trt A, Day 1, cocktail alone",0.50 (0.50–3.00) h
same,AUC0–24,[1]; [10],8.64 (7.37–10.13) ng*h/mL
same,C max,[1]; [10],4.12 (3.53–4.82) ng/mL
same,t ½,[1]; [10],2.94 (2.04–4.22) h
same,t max,[1]; [11],0.75 (0.50–1.50) h
same,AUC0–24,[1]; [12],9.88 (8.02–12.18) ng*h/mL
same,t ½,[1]; [12],9.04 (6.82–11.97) h
same,t max,[1]; [13],0.50 (0.50–1.50) h
same,t max median difference B–A,[1],0.00 (0.000–0.13) h
same,t max median difference D–A,[1],0.00 (−0.13–0.13) h
same,t ½ ratio Trt B/Trt A,[1],1.29 [1.03–1.62]
same,t ½ ratio Trt D/Trt A,[1],3.05 (2.03–4.58)
same,AUC0–24 ratio Trt B/Trt A,[1],1.02 (0.96–1.08)
same,C max ratio Trt B/Trt A,[1],1.02 (0.91–1.15)
same,t ½ ratio Trt B/Trt A,[1]; listed as 1‐OH Midazolam,1.29 (1.03–1.62)
same,AUC0–24 ratio Trt D/Trt A,[1],1.15 (1.06–1.24)
same,C max ratio Trt D/Trt A,[1],0.86 (0.75–0.98)
"CC(C(=O)O)c1ccc(-c2ccc(O)cc2)c(F)c1 (stereo not shown) [4‐OH flurbiprofen, 4‐hydroxyflurbiprofen]",C max,"[2]; Trt A, Day 1, cocktail alone (flurbiprofen 50 mg), geometric mean (95% CI)",316 (278–359) ng/mL
same,AUC0–24,[2]; [9],2516 (2280–2778) ng*h/mL
same,t ½,[2]; [9],7.85 (7.04–8.75) h
same,t max,"[2]; Trt A, Day 1, cocktail alone",3.00 (1.50–6.00) h
same,AUC0–24,[2]; [10],2366 (2138–2618) ng*h/mL
same,C max,[2]; [10],289 (259–322) ng/mL
same,t ½,[2]; [10],8.03 (7.28–8.87) h
same,t max,[2]; [11],3.00 (1.50–6.02) h
same,AUC0–24,[2]; [12],1924 (1763–2099) ng*h/mL
same,t ½,[2]; [12],12.0 (10.0–14.3) h
same,t max,[2]; [13],3.00 (1.50–6.00) h
same,t max median difference B–A,[2],0.74 (−0.02–1.50) h
same,t max median difference D–A,[2],0.50 (−0.04–1.00) h
same,t ½ ratio Trt B/Trt A,[2],1.02 (0.97–1.09)
same,t ½ ratio Trt D/Trt A,[2],1.54 (1.39–1.70)
same,AUC0–24 ratio Trt B/Trt A,[2],0.94 (0.90–0.98)
same,C max ratio Trt B/Trt A,[2],0.91 (0.87–0.96)
same,AUC0–24 ratio Trt D/Trt A,[2],0.74 (0.70–0.79)
same,C max ratio Trt D/Trt A,[2],0.53 (0.49–0.59)
COc1ccc2nc([S+]([O-])Cc3ncc(CO)c(OC)c3C)[nH]c2c1 (stereo not shown) [5‐OH omeprazole],C max,"[3]; Trt A, Day 1, cocktail alone (omeprazole 20 mg)",129 (110–151) ng/mL
same,AUC0–24,"[3]; Trt A, Day 1, cocktail alone",367 (332–406) ng*h/mL
same,t ½,"[3]; Trt A, Day 1, cocktail alone",1.34 (1.20–1.49) h
same,t max,"[3]; Trt A, Day 1, cocktail alone",3.00 (1.00–6.00) h
same,AUC0–24,[3]; [11],338 (314–363) ng*h/mL
same,C max,[3]; [11],97.0 (85.0–110.7) ng/mL
same,t ½,[3]; [11],1.53 (1.30–1.80) h
same,t max,[3]; [11],3.49 (1.50–6.02) h
same,AUC0–24,[3]; [13],278 (253–305) ng*h/mL
same,t ½,[3]; [13],2.03 (1.79–2.32) h
same,t max,[3]; [13],4.00 (1.50–10.00) h
same,t max median difference B–A,[3],0.50 (0.00–1.16) h
same,t max median difference D–A,[3],1.25 (0.75–2.00) h
same,t ½ ratio Trt B/Trt A,[3]; [14],1.14 (0.99–1.32)
same,t ½ ratio Trt D/Trt A,[3]; [14],1.50 (1.36–1.66)
same,AUC0–24 ratio Trt B/Trt A,[3]; [14],0.92 (0.85–1.00)
same,C max ratio Trt B/Trt A,[3]; [14],0.75 (0.66–0.86)
same,AUC0–24 ratio Trt D/Trt A,[3]; [15],0.74 (0.67–0.82)
OC(Cn1cncn1)(Cn1cncn1)c1ccc(F)cc1F [fluconazole],increase in AUC ratio of CYP2C9 probe substrates,[4],approximately two‐fold
CC(C(=O)O)c1ccc(-c2ccccc2)c(F)c1 (stereo not shown) [flurbiprofen],Cmax,"[2]; both, human, in vivo, 50 mg, C max, Trt A, Day 1, cocktail alone (flurbiprofen 50 mg), geometric mean (95% CI)",6410 ng/mL
same,t max,"[2]; both, human, in vivo, t max, Trt A, Day 1, cocktail alone",2 h
same,t max,"[2]; both, human, in vivo, t max, Trt D, Day 15, cocktail + nivasorexant at steady state",2.5 h
same,half-life,"[2]; both, human, in vivo, Trt A, Day 1, cocktail alone, geometric mean (95% CI)",5.73 h
same,half-life,"[2]; both, human, in vivo, Trt D, Day 15, cocktail + nivasorexant at steady state, geometric mean (95% CI)",7.89 h
same,t max median difference B–A,[2],0.75 (0.00–1.51) h
same,t max median difference D–A,[2],0.50 (−0.13–1.16) h
same,t ½ ratio Trt B/Trt A,[2],1.11 (1.07–1.15)
same,t ½ ratio Trt D/Trt A,[2],1.39 (1.31–1.47)
same,AUC0–24 ratio Trt B/Trt A,[2],1.04
same,C max ratio Trt B/Trt A,[2],0.97 (0.86–1.08)
same,AUC0–24 ratio Trt D/Trt A,[2],1.47 and 1.5
same,C max ratio Trt D/Trt A,[2],1.08 (0.97–1.20)
same,safety and tolerability (in words),[5],safe and well tolerated
COCCCC/C(=N\OCCN)c1ccc(C(F)(F)F)cc1 [fluvoxamine],increase in omeprazole exposure,[6],5.6 fold
Cc1ncc2n1-c1ccc(Cl)cc1C(c1ccccc1F)=NC2 [midazolam],safety and tolerability (in words),[5],safe and well tolerated
same,t max,"[1]; Trt A, Day 1, cocktail alone",0.75 (0.50–3.00) h
same,AUC0–24,[1]; [10],22.7 (19.5–26.5) ng*h/mL
same,AUC(0-t),"[1]; AUC0–24, Trt A, Day 1, cocktail alone, geometric mean (95% CI)",14.6 ng·h/mL
same,AUC(0-t),"[1]; AUC0–24, Trt D, Day 15, cocktail + nivasorexant at steady state, geometric mean (95% CI)",54.8 ng·h/mL
same,half-life,[1]; [9],4.94 h
same,half-life,[1]; [12],6.75 h
same,t max median difference B–A,[1],0.00 (−0.13–0.13) h
same,t max median difference D–A,[1],0.00 (−0.13–0.13) h
same,t ½ ratio Trt B/Trt A,[1],1.67 (1.38–2.01)
same,t ½ ratio Trt D/Trt A,[1],1.25 (1.07–1.46)
same,AUC0–24 ratio Trt B/Trt A,[1],1.56 and 1.6
same,C max ratio Trt B/Trt A,[1],1.34 (1.22–1.46)
same,AUC0–24 ratio Trt D/Trt A,[1],3.71 and 3.7
same,C max ratio Trt D/Trt A,[1],2.62 (2.31–2.97)
same,increase in midazolam AUC,[7]; initial b.i.d. dosing with 200 mg nivasorexant,1.8 fold
same,increase in midazolam AUC,[7]; repeated b.i.d. dosing (over 10 days) with 200 mg nivasorexant,4.5 fold
COc1ccc2[nH]c([S+]([O-])Cc3ncc(C)c(OC)c3C)nc2c1 (stereo not shown) [omeprazole],t max,"[3]; Trt A, Day 1, cocktail alone",3.00 (1.00–6.00) h
same,t max median difference B–A,[3],0.5 h
same,t max median difference D–A,[3],1.00 h
same,t max median difference B–A,[3]; listed as Omeprazole,0.50 (0.00–1.49) h
same,t max median difference D–A,[3]; listed as Omeprazole,1.00 (0.50–1.75) h
same,t ½ ratio Trt B/Trt A,[3]; [14],1.46 (1.24–1.72)
same,t ½ ratio Trt D/Trt A,[3]; [14],2.01 (1.69–2.40)
same,AUC0–24 ratio Trt B/Trt A,[3]; [14],2.05 and 2.1
same,C max ratio Trt B/Trt A,[3]; [14],1.60 (1.30–1.97)
same,AUC0–24 ratio Trt D/Trt A,[3]; [15],6.84 and 6.8
same,C max ratio Trt D/Trt A,[3]; [15],3.31 (2.55–4.28)
same,safety and tolerability (in words),[5],safe and well tolerated
same,Cmax,[8]; 20 mg,162 ng/mL
same,AUC(0-t),"[8]; AUC0–24, Trt A, Day 1, cocktail alone",372 ng·h/mL
same,AUC(0-t),"[8]; AUC0–24, Trt D, Day 15, cocktail + nivasorexant at steady state",2670 ng·h/mL
same,half-life,"[8]; Trt A, Day 1, cocktail alone",0.99 h
same,half-life,[8]; [13],1.99 h
